Results from PubChem BioAssay (NCI).
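Protocol summary: plate cells (96-well), add compound at 5 concentrations, incubate 48 h, interpolate endpoints linearly. The concentration for full growth arrest is given as TGI.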

What was measured:
Test in all cases: NCI-60 cell line screen, 48 h
[1] = test system: ACHN renal
[2] = test system: HL-60(TB) leukemia
[3] = test system: M19-MEL melanoma
[4] = test system: KM12 colon
[5] = test system: SF-295 CNS
[6] = test system: OVCAR-4 ovarian
[7] = test system: SF-268 CNS
[8] = test system: SK-MEL-28 melanoma
[9] = test system: U251 CNS
[10] = test system: RPMI-8226 leukemia
[11] = test system: HT29 colon
[12] = test system: OVCAR-8 ovarian
[13] = test system: A498 renal
[14] = test system: RXF-631 renal
[15] = test system: SK-MEL-2 melanoma
[16] = test system: OVCAR-3 ovarian
[17] = test system: SK-OV-3 ovarian
[18] = test system: EKVX NSCLC
[19] = test system: DMS 273 small cell lung
[20] = test system: K-562 leukemia
[21] = test system: HCT-116 colon
[22] = test system: A549 NSCLC
[23] = test system: LXFL 529 NSCLC
[24] = test system: KM20L2 colon
[25] = test system: MOLT-4 leukemia
[26] = test system: COLO 205 colon
[27] = test system: SF-539 CNS
[28] = test system: DLD-1 colon
[29] = test system: SNB-78 CNS
[30] = test system: SK-MEL-5 melanoma
[31] = test system: SNB-75 CNS
[32] = test system: M14 melanoma
[33] = test system: SW-620 colon
[34] = test system: NCI-H522 lung
[35] = test system: CCRF-CEM leukemia
[36] = test system: NCI-H226 lung
[37] = test system: MALME-3M melanoma
[38] = test system: SN12C renal
[39] = test system: HOP-18 NSCLC
[40] = test system: UACC-62 melanoma
[41] = test system: SNB-19 CNS
[42] = test system: CAKI-1 renal
[43] = test system: HCT-15 colon
[44] = test system: IGROV1 ovarian
[45] = test system: 786-0 renal
[46] = test system: HCC-2998 colon
[47] = test system: HOP-62 NSCLC
[48] = test system: DMS 114 small cell lung
[49] = test system: LOX IMVI melanoma
[50] = test system: NCI-H460 lung
[51] = test system: UACC-257 melanoma
[52] = test system: UO-31 renal
[53] = test system: RXF 393 renal
[54] = test system: SR leukemia
[55] = test system: NCI-H23 lung
[56] = test system: XF 498 CNS
[57] = test system: TK-10 renal

N#Cc1c2c(c(N=P(c3ccccc3)(c3ccccc3)c3ccccc3)n3c1nc1ccccc13)CCCC2
TGI [1]: 67.5 µM | TGI [2]: 24.8 µM | TGI [3]: 67.8 µM | TGI [4]: > 100 µM | TGI [5]: > 100 µM | TGI [6]: > 100 µM | TGI [7]: > 100 µM | TGI [8]: > 100 µM | TGI [9]: 77.9 µM | TGI [10]: 61.6 µM | TGI [11]: 74.9 µM | TGI [12]: > 100 µM | TGI [13]: 73.2 µM | TGI [14]: > 100 µM | TGI [15]: 70.4 µM | TGI [16]: 86.1 µM | TGI [17]: > 100 µM | TGI [18]: > 100 µM | TGI [19]: 56.1 µM | TGI [20]: 38.2 µM | TGI [21]: > 100 µM | TGI [22]: > 100 µM | TGI [23]: > 100 µM | TGI [24]: > 100 µM | TGI [25]: 64.2 µM | TGI [26]: 24.8 µM | TGI [27]: > 100 µM | TGI [28]: > 100 µM | TGI [29]: 97.3 µM | TGI [30]: 27.3 µM | TGI [31]: 69.7 µM | TGI [32]: > 100 µM | TGI [33]: > 100 µM | TGI [34]: 41.8 µM | TGI [35]: 57.7 µM | TGI [36]: 22.4 µM | TGI [37]: > 100 µM | TGI [38]: 39.6 µM | TGI [39]: > 100 µM | TGI [40]: 74.4 µM | TGI [41]: 99.2 µM | TGI [42]: > 100 µM | TGI [43]: > 100 µM | TGI [44]: > 100 µM | TGI [45]: > 100 µM | TGI [46]: > 100 µM | TGI [47]: 71.5 µM | TGI [48]: 59.4 µM | TGI [49]: 76.3 µM | TGI [50]: 56.5 µM | TGI [51]: 57.8 µM | TGI [52]: 79.4 µM | TGI [53]: 98.5 µM

CC(=O)NC1=C(NCCN(C)C)C(=O)c2ccccc2C1=O
TGI [1]: > 50 µM | TGI [2]: 22.5 µM | TGI [3]: 14.3 µM | TGI [4]: > 50 µM | TGI [5]: > 50 µM | TGI [6]: 17.7 µM | TGI [54]: > 50 µM | TGI [7]: > 50 µM | TGI [8]: > 50 µM | TGI [9]: 29 µM | TGI [11]: 38.6 µM | TGI [12]: 31.6 µM | TGI [15]: > 50 µM | TGI [16]: > 50 µM | TGI [17]: > 50 µM | TGI [18]: > 50 µM | TGI [19]: 27.6 µM | TGI [20]: > 50 µM | TGI [21]: 18.6 µM | TGI [22]: 48.8 µM | TGI [23]: > 50 µM | TGI [24]: > 50 µM | TGI [25]: > 50 µM | TGI [26]: 17.7 µM | TGI [27]: 34.4 µM | TGI [28]: > 50 µM | TGI [29]: > 50 µM | TGI [30]: 14.1 µM | TGI [31]: > 50 µM | TGI [32]: > 50 µM | TGI [33]: > 50 µM | TGI [34]: 23.8 µM | TGI [35]: > 50 µM | TGI [36]: > 50 µM | TGI [37]: 14.3 µM | TGI [38]: 27.8 µM | TGI [40]: 22.1 µM | TGI [41]: > 50 µM | TGI [43]: 20.5 µM | TGI [44]: > 50 µM | TGI [55]: 27.8 µM | TGI [45]: > 50 µM | TGI [56]: 35.1 µM | TGI [46]: > 50 µM | TGI [47]: > 50 µM | TGI [49]: > 50 µM | TGI [50]: > 50 µM | TGI [51]: 16.8 µM | TGI [57]: > 50 µM | TGI [52]: > 50 µM | TGI [53]: > 50 µM
